Assay results as given in patent US20220177484A1, “MACROCYCLES WITH ANTIOXIDANT AND NEUROPROTECTIVE ACTIVITIES” (INSTITUTO BIOMAR, S.A, priority 2019, published 2022).

What was measured:
Assay type in all cases: cell-based
[1] = tested on: SH-SY5Y human neuroblastoma cells expressing mutated huntingtin (pEGFP-Q74); test: Mutated huntingtin aggregation in transfected SH-SY5Y cells; details: 5 μM, 24 h
Experimental: Mutated huntingtin proteins aggregation are indicated by white arrows, GFP huntingtin protein (green) and β-tubulin (red). The images were acquired using the Operetta CLS automated confocal microscope, using the 40× water immersion objective.
SH-SY5Y human neuroblastoma cells were maintained in Dulbecco's modified Eagle's medium (DMEM) supplemented with 10% fetal bovine serum (FBS), 2 mM L-glutamine and 100 U/mL penicillin-0.1 mg/mL streptomycin at 37° C. and 5% CO2.
To study the effect of compounds on mutated huntingtin and synuclein that accumulates in cells, SH-SY5Y were transfected with a constitutively active mutated-huntingtin expression vector pEGFP-Q74 (encoding EGFP protein fused to a fragment of huntingtin corresponding to the exon 1 with 74 CAG repeats; c.54GCA[74]; Addgene; #40262) and EGFP-alphasynuclein-A53T (Addgene; #40823).
For transfection assays, cells were seeded (30×10^3 cells/cm^2) on 96-multiwell plates (coated with poliornitine-fibronectine). Cells were transfected with 0.3 μg pEGFP-Q74 plasmid using LTX with Plus Reagent according to the manufacturer's instructions (Thermo Fisher). After 24-h, the medium was changed with a new one, and cells were treated with increasing amounts of GKK1032C and CL0670 (0.1 μM, 1 μM and 5 μM) or DMSO (control cells) for 24 h at 37° C. […]

[2] = tested on: rat cortical primary neurons; test: H2O2 formation in cortical primary neurons treated with L-BSO and rotenone (Amplex Red)
Experimental: The data are presented as the mean values±[…] of the mean (SEM) from n=6 (i.e., 6 independent wells measured independently).
After this period, cells were again washed and determined the rate of H2O2 production during the next 2 h.

[3] = tested on: rat cortical primary neurons; test: Protein concentration in neurons incubated with L-BSO and rotenone (neuronal death); details: L-BSO and rotenone 3 or 6 h with compound at 0.1, 1 or 5 μg/ml; effect as from 0.1 μg/ml (6 h) (FIG. 4)

SMILES | mutated huntingtin and number of aggregates [1] | rate of H2O2 formation by the neurons ([2]; L-BSO + rotenone 6 h, washed, then compound added at 1 and 5 μg/ml, H2O2 release recorded 2 h (FIG. 1)) | rate of H2O2 formation ([2]; compound 1 μg/ml together with L-BSO and rotenone for 6 h, washed, recorded 2 h (FIG. 2)) | H2O2 formation in untreated neurons ([2]; pre-treatment 5 μg/ml for 72 h, no L-BSO/rotenone (FIG. 3)) | L-BSO+rotenone-induced H2O2 formation ([2]; pre-treatment 5 μg/ml for 72 h, washed, then L-BSO and rotenone 6 h, recorded 2 h (FIG. 3)) | decrease in protein concentration remaining in the wells (neuronal death) [3]
C=CC1(C)C=C(C)C2C3C(Oc4ccc(cc4)CC4C(=O)NC(O)C4C(=O)C31)C1C(C)CC(C)CC21C (stereo not drawn) [CL0670] | significantly decreased | – | – | – | – | –
C=CC1(C)C=C(C)C2C3C(Oc4ccc(cc4)CC4(O)NC(=O)C5(OC45)C(=O)C31)C1C(C)CC(C)CC21C (stereo not drawn) [Compound I] | – | dose-dependently decreased | significantly impaired | prevented | very significantly prevented | dose-dependently prevented such decrease
